Measurements as given in PubChem BioAssay AID1963846 (Molecular Pharmacology Branch, DTP, NCI, 2024).

Tested on: 454973-116-R2-J3-PDC complex spheroid viability
Test: Anticancer human tumor 454973-116-R2-J3-PDC patient-derived pancreatic carcinoma cell line growth inhibition [POLQ]
Conditions: for IC50: curve of first compound; for viability, T/C: stronger effect = lower value; active means viability on the fitted dose curve at most 10% of control; inactive means the rest
Procedure, shortened: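 PDC + HUVEC + MSC complex spheroids; POLQ inhibitors ± partner drugs; top conc. at/near clinical Cmax, else 10 microM (SN-38 1 microM), half-log dilutions; 37 degrees C, 5% CO2.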

[1] = second compound 0.0316 µM, first compound 0.0316 µM
[2] = second compound 0.0316 µM, first compound 0.1 µM
[3] = second compound 0.0316 µM, first compound 0.316 µM
[4] = second compound 0.0316 µM, first compound 1 µM
[5] = second compound 0.1 µM, first compound 0.0316 µM
[6] = second compound 0.1 µM, first compound 0.1 µM
[7] = second compound 0.1 µM, first compound 0.316 µM
[8] = second compound 0.1 µM, first compound 1 µM
[9] = second compound 0.316 µM, first compound 0.0316 µM
[10] = second compound 0.316 µM, first compound 0.1 µM
[11] = second compound 0.316 µM, first compound 0.316 µM
[12] = second compound 0.316 µM, first compound 1 µM
[13] = second compound 1 µM, first compound 0.0316 µM
[14] = second compound 1 µM, first compound 0.1 µM
[15] = second compound 1 µM, first compound 0.316 µM
[16] = second compound 1 µM, first compound 1 µM
[17] = second compound 3.16 µM, first compound 0.0316 µM
[18] = second compound 3.16 µM, first compound 0.1 µM
[19] = second compound 3.16 µM, first compound 0.316 µM
[20] = second compound 3.16 µM, first compound 1 µM
[21] = second compound 10 µM, first compound 0.0316 µM
[22] = second compound 10 µM, first compound 0.1 µM
[23] = second compound 10 µM, first compound 0.316 µM
[24] = second compound 10 µM, first compound 1 µM
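Further: spheroids exposed to drugs for seven days before measurement.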
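Wherever viability, T/C is given: percent viability relative to DMSO vehicle control wells taken as 100%.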

C=CCn1c(=O)c2cnc(Nc3ccc(N4CCN(C)CC4)cc3)nc2n1-c1cccc(C(C)(C)O)n1 + COC1C(OC(N)=O)C(O)C(Oc2ccc3c(O)c(NC(=O)c4ccc(O)c(CC=C(C)C)c4)c(=O)oc3c2C)OC1(C)C
549 nM: IC50 (second compound 1 µM)
inactive: viability, T/C (second compound 0.0316 µM, first compound 0.00316 µM) 107% | viability, T/C (second compound 0.0316 µM, first compound 0.01 µM) 98.3% | viability, T/C [1] 102% | viability, T/C [2] 95.5% | viability, T/C [3] 81.2% | viability, T/C [4] 16.6% | viability, T/C (second compound 0.1 µM, first compound 0.00316 µM) 99.7% | viability, T/C (second compound 0.1 µM, first compound 0.01 µM) 104% | viability, T/C [5] 102% | viability, T/C [6] 103% | viability, T/C [7] 76.1% | viability, T/C [8] 17.3% | viability, T/C (second compound 0.316 µM, first compound 0.00316 µM) 102% | viability, T/C (second compound 0.316 µM, first compound 0.01 µM) 104% | viability, T/C [9] 104% | viability, T/C [10] 103% | viability, T/C [11] 74.7% | viability, T/C [12] 20.5% | viability, T/C (second compound 1 µM, first compound 0.00316 µM) 112% | viability, T/C (second compound 1 µM, first compound 0.01 µM) 101% | viability, T/C [13] 105% | viability, T/C [14] 104% | viability, T/C [15] 79.2% | viability, T/C [16] 18.2% | viability, T/C (second compound 3.16 µM, first compound 0.00316 µM) 104% | viability, T/C (second compound 3.16 µM, first compound 0.01 µM) 106% | viability, T/C [17] 111% | viability, T/C [18] 110% | viability, T/C [19] 86.8% | viability, T/C [20] 19.8% | viability, T/C (second compound 10 µM, first compound 0.00316 µM) 101% | viability, T/C (second compound 10 µM, first compound 0.01 µM) 98.8% | viability, T/C [21] 99.5% | viability, T/C [22] 105% | viability, T/C [23] 82.9% | viability, T/C [24] 18.8%
535 nM: IC50 (second compound 0.316 µM)
548 nM: IC50 (second compound 0.0316 µM)
596 nM: IC50 (second compound 3.16 µM)
527 nM: IC50 (second compound 0.1 µM)
571 nM: IC50 (second compound 10 µM)

CCCS(=O)(=O)Nc1ccc(F)c(C(=O)c2c[nH]c3ncc(-c4ccc(Cl)cc4)cc23)c1F + COC1C(OC(N)=O)C(O)C(Oc2ccc3c(O)c(NC(=O)c4ccc(O)c(CC=C(C)C)c4)c(=O)oc3c2C)OC1(C)C
> 10000 nM: IC50 (second compound 0.1 µM) | IC50 (second compound 0.316 µM) | IC50 (second compound 1 µM) | IC50 (second compound 3.16 µM) | IC50 (second compound 10 µM)
inactive: viability, T/C [1] 98.9% | viability, T/C [2] 106% | viability, T/C [3] 101% | viability, T/C [4] 114% | viability, T/C (second compound 0.0316 µM, first compound 3.16 µM) 110% | viability, T/C (second compound 0.0316 µM, first compound 10 µM) 47.5% | viability, T/C [5] 98.9% | viability, T/C [6] 118% | viability, T/C [7] 103% | viability, T/C [8] 113% | viability, T/C (second compound 0.1 µM, first compound 3.16 µM) 109% | viability, T/C (second compound 0.1 µM, first compound 10 µM) 54.8% | viability, T/C [9] 107% | viability, T/C [10] 114% | viability, T/C [11] 103% | viability, T/C [12] 110% | viability, T/C (second compound 0.316 µM, first compound 3.16 µM) 103% | viability, T/C (second compound 0.316 µM, first compound 10 µM) 57.3% | viability, T/C [13] 120% | viability, T/C [14] 107% | viability, T/C [15] 109% | viability, T/C [16] 117% | viability, T/C (second compound 1 µM, first compound 3.16 µM) 108% | viability, T/C (second compound 1 µM, first compound 10 µM) 57.3% | viability, T/C [17] 112% | viability, T/C [18] 109% | viability, T/C [19] 103% | viability, T/C [20] 106% | viability, T/C (second compound 3.16 µM, first compound 3.16 µM) 105% | viability, T/C (second compound 3.16 µM, first compound 10 µM) 62.8% | viability, T/C [21] 114% | viability, T/C [22] 104% | viability, T/C [23] 97.2% | viability, T/C [24] 106% | viability, T/C (second compound 10 µM, first compound 3.16 µM) 109% | viability, T/C (second compound 10 µM, first compound 10 µM) 65.5%
9520 nM: IC50 (second compound 0.0316 µM)
